Laboratory results from ChEMBL document CHEMBL5647698, “Covalent-Allosteric Inhibitors to Achieve Akt Isoform-Selectivity” (Angew Chem Int Ed Engl, 2019).
The source made the active and inactive calls. The rule behind the calls is not given here.

Assays:
PANC-1 [1] = assay: Downregulation of p-AKT level at serine 473 residue in Akt1 knockout human PANC-1 cells measured after 24 hrs by Western blotting analysis; assay type: functional, cell-based; conditions: dose 0.3-5 µM
PANC-1 [2] = assay: Downregulation of p-PRAS40 level at threonine 246 residue in Akt1 knockout human PANC-1 cells measured after 24 hrs by Western blotting analysis; assay type: functional, cell-based; conditions: dose 0.3-5 µM
[3] = target: RAC-gamma serine/threonine-protein kinase (Homo sapiens, UniProt Q9Y243)
Description: Inhibition of wild-type AKT3 (unknown origin) by HTRF KinEASE assay

[4] = target: RAC-alpha serine/threonine-protein kinase (Homo sapiens, UniProt P31749); assay: biochemical
Sequence of RAC-alpha serine/threonine-protein kinase (P31749 whole entry): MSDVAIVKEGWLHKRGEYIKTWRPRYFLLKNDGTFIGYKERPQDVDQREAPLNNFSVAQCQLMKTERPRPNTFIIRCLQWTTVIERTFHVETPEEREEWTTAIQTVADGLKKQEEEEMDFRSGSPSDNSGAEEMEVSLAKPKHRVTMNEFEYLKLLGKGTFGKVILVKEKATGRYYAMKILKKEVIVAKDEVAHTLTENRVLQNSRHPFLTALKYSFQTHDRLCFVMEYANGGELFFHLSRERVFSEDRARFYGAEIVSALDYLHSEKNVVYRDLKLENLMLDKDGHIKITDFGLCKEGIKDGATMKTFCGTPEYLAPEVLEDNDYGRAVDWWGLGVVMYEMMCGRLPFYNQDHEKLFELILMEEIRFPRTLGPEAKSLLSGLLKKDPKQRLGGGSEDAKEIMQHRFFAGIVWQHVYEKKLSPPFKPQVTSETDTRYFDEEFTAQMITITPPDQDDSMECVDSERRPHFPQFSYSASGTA

Sequence of RAC-gamma serine/threonine-protein kinase (Q9Y243 whole entry): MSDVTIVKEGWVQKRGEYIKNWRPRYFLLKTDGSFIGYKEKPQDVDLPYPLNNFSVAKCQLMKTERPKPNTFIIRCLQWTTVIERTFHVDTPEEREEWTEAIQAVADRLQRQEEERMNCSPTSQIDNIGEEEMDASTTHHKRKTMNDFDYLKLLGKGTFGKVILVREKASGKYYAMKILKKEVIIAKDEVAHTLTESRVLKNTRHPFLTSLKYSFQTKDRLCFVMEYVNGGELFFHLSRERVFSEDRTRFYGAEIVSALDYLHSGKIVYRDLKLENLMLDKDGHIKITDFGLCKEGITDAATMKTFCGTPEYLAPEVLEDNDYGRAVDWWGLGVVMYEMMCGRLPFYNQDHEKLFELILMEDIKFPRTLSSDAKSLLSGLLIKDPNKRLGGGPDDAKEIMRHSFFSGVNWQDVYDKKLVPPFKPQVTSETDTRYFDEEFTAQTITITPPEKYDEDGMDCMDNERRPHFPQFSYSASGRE

SMILES	Activity (PANC-1 [1])	Activity (PANC-1 [2])	IC50 [3] [µM]	IC50 [4] [µM]
C=CC(=O)Nc1ccc2[nH]c(=O)n(C3CCN(Cc4ccc(-c5[nH]c(=O)c(C)nc5-c5ccccc5)cc4)CC3)c2c1	Active	Active		
Nc1ccc2[nH]c(=O)n(C3CCN(Cc4ccc(-c5[nH]c(=O)c(Cc6ccc(O)cc6)nc5-c5ccccc5)cc4)CC3)c2c1			17.7	5.59
CC(C)Cc1nc(-c2ccccc2)c(-c2ccc(CN3CCC(n4c(=O)[nH]c5ccc(N)cc54)CC3)cc2)[nH]c1=O				2.83
C=CC(=O)Nc1ccc2[nH]c(=O)n(C3CCN(Cc4ccc(-c5[nH]c(=O)c(CC(C)C)nc5-c5ccccc5)cc4)CC3)c2c1	Active	Active		
C=CC(=O)Nc1ccc2[nH]c(=O)n(C3CCN(Cc4ccc(-c5nc6cc[nH]c(=O)c6cc5-c5ccccc5)cc4)CC3)c2c1	Active	Active		
